Legend:
[1] = Terminal half life in iv dosed patient with normal renal function; settings: human, in vivo
[2] = Terminal half life in iv dosed patient (7 patients) with renal insufficiency; settings: human, in vivo
[3] = Disposition rate constant in iv dosed patient (7 patients) with renal insufficiency; settings: human, in vivo
[4] = Apparent first order elimination rate constant from the central compartment in iv dosed patient (7 patients) with renal insufficiency; settings: human, in vivo
clinical [5] = settings: human, in vivo, po, 350 mg/kg
Description: Terminal half life in patient (7 patients) with renal insufficiency at 350 mg/kg, po

[6] = Apparent volume of distribution at steady state in iv dosed patient (7 patients) with renal insufficiency; settings: human, in vivo
[7] = Drug excretion in human assessed as unchanged parent compound level; settings: in vivo
[8] = Apparent volume of distribution at central compartment in iv dosed patient (7 patients) with renal insufficiency; settings: human, in vivo
[9] = Apparent volume of distribution in beta-phase iv dosed patient with normal renal function; settings: human, in vivo
[10] = Apparent first order elimination rate constant from the central compartment in iv dosed patient with normal renal function; settings: human, in vivo
[11] = Disposition rate constant in patient (7 patients) with renal insufficiency at 50 mg/kg, po; settings: human, in vivo
[12] = Half life in patient with normal renal function assessed as unchanged compound level using 14C labeled compound measured over 72 hrs; settings: human, in vivo
[13] = Half life in patient (5 patients) with severe renal insufficiency assessed as unchanged compound level using 14C labeled compound measured over 72 hrs; settings: human, in vivo
[14] = Total body clearance in iv dosed patient (7 patients) with renal insufficiency; settings: human, in vivo
[15] = Total body clearance in iv dosed patient with normal renal function; settings: human, in vivo
[16] = Disposition rate constant in patient (7 patients) with renal insufficiency at 350 mg/kg, po; settings: human, in vivo
[17] = Apparent volume of distribution in beta-phase in iv dosed patient (7 patients) with renal insufficiency; settings: human, in vivo
clinical [18] = settings: human, in vivo, po, 50 mg/kg
Description: Terminal half life in patient (7 patients) with renal insufficiency at 50 mg/kg, po

[19] = Apparent volume of distribution at steady state in iv dosed patient with normal renal function; settings: human, in vivo

`O=P1(N(CCCl)CCCl)NCCCO1` (centres undefined) [CYCLOPHOSPHAMIDE ANHYDROUS] showed a half-life [1] of 8.21 h, a half-life [2] of 10.2 h and a k el [3] of 1.94e-05 s⁻¹. The k el [4] was 3.36e-05 s⁻¹, the half-life (clinical [5]) was 5.21 h and the Vd [6] was 0.58 L/kg. The dose excreted [7] was less than 15%, the Vd [8] was 0.41 L/kg and the Vd [9] was 0.68 L/kg. It also gave a k el [10] of 4.86e-05 s⁻¹, a k el [11] of 1.42e-05 s⁻¹ and a half-life at 72 h [12] of 6.9 h. For the same compound, the half-life at 72 h [13] was 14 h, the clearance [14] was 0.813 mL/min/kg and the clearance [15] was 0.977 mL/min/kg. For the same compound, the k el [16] was 1.92e-05 s⁻¹, the Vd [17] was 0.72 L/kg and the half-life (clinical [18]) was 13.7 h. The Vd [19] was 0.73 L/kg.
